The values that follow are results of earlier work, collected in US10352920B2, “Supplements and monitoring systems for dosing of the supplements” (i-CalQ, LLC, priority 2012, dated 2019).

One data set deals with lipoxygenase. As to conditions: in vitro.
The target of data set [1] is inducible nitric oxide synthase (Homo sapiens, UniProt P35228). As to conditions: in vitro.
For data set [2] the following is noted: dietary curcumin.
The next data set concerns cognitive function. To be noted: administration of 9 grams.
In a further data set the test system is cortisol. To be noted: ingestion of 1 gram for 7 days.
The subject of data set [3] is athletes involved in cycling, weight training and endurance running. As to conditions: sports nutrition studies.

Sequence of inducible nitric oxide synthase (P35228 whole entry): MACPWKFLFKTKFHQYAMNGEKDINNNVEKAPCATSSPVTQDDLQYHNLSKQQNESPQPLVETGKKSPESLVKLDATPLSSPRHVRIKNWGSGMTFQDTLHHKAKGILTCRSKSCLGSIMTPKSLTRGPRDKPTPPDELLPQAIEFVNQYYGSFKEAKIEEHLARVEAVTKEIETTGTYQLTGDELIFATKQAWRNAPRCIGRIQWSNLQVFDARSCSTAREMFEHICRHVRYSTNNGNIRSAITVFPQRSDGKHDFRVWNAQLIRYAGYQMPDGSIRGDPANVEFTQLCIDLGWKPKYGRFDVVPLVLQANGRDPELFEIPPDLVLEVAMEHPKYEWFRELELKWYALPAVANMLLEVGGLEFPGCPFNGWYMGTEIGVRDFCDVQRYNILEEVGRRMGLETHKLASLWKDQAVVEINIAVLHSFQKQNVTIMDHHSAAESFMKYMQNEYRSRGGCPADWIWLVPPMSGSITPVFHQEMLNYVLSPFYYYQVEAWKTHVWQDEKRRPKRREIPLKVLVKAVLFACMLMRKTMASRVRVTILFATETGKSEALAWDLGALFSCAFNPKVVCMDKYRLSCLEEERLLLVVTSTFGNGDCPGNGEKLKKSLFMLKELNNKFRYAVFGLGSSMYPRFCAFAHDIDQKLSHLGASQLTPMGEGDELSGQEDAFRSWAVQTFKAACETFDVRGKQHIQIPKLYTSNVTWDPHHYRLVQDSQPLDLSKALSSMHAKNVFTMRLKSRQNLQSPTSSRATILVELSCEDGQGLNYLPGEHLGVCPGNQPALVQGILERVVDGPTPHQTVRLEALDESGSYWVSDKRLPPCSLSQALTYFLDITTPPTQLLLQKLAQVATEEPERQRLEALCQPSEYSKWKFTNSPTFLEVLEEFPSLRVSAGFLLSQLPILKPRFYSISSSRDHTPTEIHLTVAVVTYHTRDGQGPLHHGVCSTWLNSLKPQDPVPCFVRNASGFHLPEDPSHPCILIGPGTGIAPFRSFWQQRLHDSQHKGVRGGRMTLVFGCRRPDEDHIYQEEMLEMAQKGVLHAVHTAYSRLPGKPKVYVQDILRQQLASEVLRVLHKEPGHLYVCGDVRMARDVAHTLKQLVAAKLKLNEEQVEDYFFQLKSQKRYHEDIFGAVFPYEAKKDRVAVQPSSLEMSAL

With `COc1cc(/C=C/C(=O)CC(=O)/C=C/c2ccc(O)c(OC)c2)ccc1O` [curcumin], the activity of lipoxygenase result in the data set on lipoxygenase is “down-regulating the activity”. Besides, in data set [1], the “activity of inducible nitric oxide synthase” value is “down-regulating the activity”. Moreover, in data set [2], the “bioavailability (levels in plasma and tissues)” value is on record as “poor bioavailability”.
As for `N[C@@H](Cc1ccc(O)cc1)C(=O)O` [tyrosine], the “cognitive function following experimentally induced hypothermia” value with cognitive function was “improves cognitive function”.
Turning to `O=C1O[C@H]([C@@H](O)CO)C(O)=C1O` [vitamin C], the “cortisol rise in response to lipopolysaccharide administration” value with cortisol is recorded as “blunts the cortisol rise”.
In the case of phosphotidylserine, in data set [3], the muscle soreness result was “prevent muscle soreness”, the recovery result is recorded as “speed up recovery” and the well-being result is on record as “improve well-being”.
